Earlier results on six compounds are cited in patent publication US20110129510A1, “FIBROUS SURFACE STRUCTURE CONTAINING ACTIVE INGREDIENTS WITH CONTROLLED RELEASE OF ACTIVE INGREDIENTS, USE THEREOF AND METHOD FOR THE PRODUCTION THEREOF” (BASF SE, priority 2008, published 2011).

Values after ≈ are worked out from the molar mass of the structure shown. Like-named read-outs stand apart in the source and are kept apart here.

As to `NC(=O)N1c2ccccc2C=Cc2ccccc21` [Carbamazipine], for the setting “RT”, the Solubility in water is 945.1 µg/mL (≈ 4000 µM).

Consider `Clc1ccccc1C(c1ccccc1)(c1ccccc1)n1ccnc1` [Clotrimazole], for which the Solubility in water (25° C.) was <10 µg/mL.

With `CCOC(=O)C1=C(C)NC(C)=C(C(=O)OC)C1c1cccc(Cl)c1Cl` (stereo not drawn) [Felodipine], the Solubility in water (22° C.) is 4.53 µg/mL (≈ 11.8 µM).

Regarding `COC1=CC(=O)C[C@@H](C)[C@]12Oc1c(Cl)c(OC)cc(OC)c1C2=O` [Griseofulvin], the Solubility in water (25° C.) was 0.03685 µg/mL (≈ 0.104 µM).

As for `COc1ccc2c(c1)c(CC(=O)O)c(C)n2C(=O)c1ccc(Cl)cc1` [Indomethacin], under “25° C.”, the Solubility in water was 14 µg/mL (≈ 39.1 µM).

In the case of `CC(=O)N1CCN(c2ccc(OCC3COC(Cn4ccnc4)(c4ccc(Cl)cc4Cl)O3)cc2)CC1` (stereo not drawn) [Ketoconazole], the Solubility in water (37° C.) is 80 µg/mL (≈ 151 µM).
